Results as given in the supplement of paper PMC10307832.

Key:
Experiment in all cases: relative viability (nuclei count vs DMSO), 5 days (fraction); higher = more cells survive
Tanzisertib + OSI-027 = compound: O[C@H]1CC[C@H](Nc2ncc3nc(Nc4c(F)cc(F)cc4F)n([C@H]4CCOC4)c3n2)CC1 [Tanzisertib] + COc1cccc2cc(-c3nc([C@H]4CC[C@H](C(=O)O)CC4)n4ncnc(N)c34)[nH]c12 [OSI-027] (partner 0.5 µM)
Method in brief: (§1)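 After 5 days of treatment, lung cancer cells in 1536-well plates were fixed and stained in a single step (final 0.05% Triton X-100, 1% formaldehyde, 1 ug/ml Hoechst) and their nuclei counted on 4× images. Treatment had been applied by pin tool the day after seeding as one drug alone or as a fixed anchor-drug dose with five library-drug doses (not always all listed) in √10 steps. Relative viability is the nuclei count of treated wells divided by that of vehicle wells, and values are medians of duplicate plates.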

[1] = compound: C[C@@H](N)c1ccc(C(=O)Nc2ccnc3[nH]ccc23)cc1 + C[C@]1(O)C[C@@H](c2nc(-c3ccc4ccc(-c5ccccc5)nc4c3)c3c(N)nccn32)C1 [Linsitinib] (partner 1 µM)
Method in brief: as §1

Tanzisertib + Pemetrexed = compound: O[C@H]1CC[C@H](Nc2ncc3nc(Nc4c(F)cc(F)cc4F)n([C@H]4CCOC4)c3n2)CC1 [Tanzisertib] + Nc1nc2[nH]cc(CCc3ccc(C(=O)N[C@@H](CCC(=O)O)C(=O)O)cc3)c2c(=O)[nH]1 [Pemetrexed] (partner 0.2 µM)
Method in brief: as §1

Tanzisertib + AZD7762 = compound: O[C@H]1CC[C@H](Nc2ncc3nc(Nc4c(F)cc(F)cc4F)n([C@H]4CCOC4)c3n2)CC1 [Tanzisertib] + NC(=O)Nc1cc(-c2cccc(F)c2)sc1C(=O)N[C@H]1CCCNC1 [AZD7762] (partner 0.2 µM)
Method in brief: as §1

Row | Cell Line | relative viability (Tanzisertib + OSI-027; first compound 0.08 µM) | relative viability (Tanzisertib + OSI-027; first compound 0.253 µM) | relative viability (Tanzisertib + OSI-027; first compound 0.8 µM) | relative viability (Tanzisertib + OSI-027; first compound 2.53 µM) | relative viability (Tanzisertib + OSI-027; first compound 8 µM) | relative viability ([1]; first compound 0.04 µM) | relative viability ([1]; first compound 0.1265 µM) | relative viability ([1]; first compound 0.4 µM) | relative viability ([1]; first compound 1.265 µM) | relative viability ([1]; first compound 4 µM) | relative viability (Tanzisertib + Pemetrexed; first compound 0.08 µM) | relative viability (Tanzisertib + Pemetrexed; first compound 0.253 µM) | relative viability (Tanzisertib + Pemetrexed; first compound 0.8 µM) | relative viability (Tanzisertib + Pemetrexed; first compound 2.53 µM) | relative viability (Tanzisertib + Pemetrexed; first compound 8 µM) | relative viability (Tanzisertib + AZD7762; first compound 0.08 µM) | relative viability (Tanzisertib + AZD7762; first compound 0.253 µM) | relative viability (Tanzisertib + AZD7762; first compound 0.8 µM) | relative viability (Tanzisertib + AZD7762; first compound 2.53 µM) | relative viability (Tanzisertib + AZD7762; first compound 8 µM)
1 | NCI-H1623 | 0.495 | 0.448 | 0.453 | 0.437 | 0.432 | – | – | – | – | – | – | – | – | – | – | – | – | – | – | –
2 | SK-LU-1 | 0.392 | 0.324 | 0.319 | 0.354 | 0.365 | 1.09 | 1.1 | 1.19 | 0.956 | 0.637 | 1.07 | 0.949 | 1.02 | 0.969 | 0.979 | – | – | – | – | –
3 | Calu-6 | – | – | – | – | – | 0.757 | 0.952 | 0.984 | 0.922 | 0.839 | – | – | – | – | – | – | – | – | – | –
4 | NCI-H1563 | 0.789 | 0.731 | 0.722 | 0.731 | 0.704 | 1.25 | 1.16 | 1.14 | 1.13 | 1.27 | 0.829 | 0.935 | 0.761 | 0.711 | 0.619 | – | – | – | – | –
5 | NCI-H661 | 0.771 | 0.741 | 0.615 | 0.704 | 0.655 | 0.558 | 0.582 | 0.623 | 0.441 | 0.508 | 0.896 | 0.896 | 0.872 | 0.919 | 0.913 | – | – | – | – | –
6 | NCI-H522 | 0.802 | 0.831 | 0.748 | 0.696 | 0.626 | – | – | – | – | – | 1.04 | 1.07 | 0.915 | 1.07 | 1.05 | 1.1 | 0.891 | 0.839 | 0.955 | 0.886
7 | COR-L23 | 0.892 | 0.757 | 0.704 | 0.842 | 0.732 | 0.968 | 0.925 | 0.874 | 0.744 | 0.442 | 0.2 | 0.209 | 0.188 | 0.201 | 0.191 | – | – | – | – | –
8 | NCI-H1299 | – | – | – | – | – | 0.945 | 0.977 | 0.939 | 0.956 | 0.85 | – | – | – | – | – | – | – | – | – | –
9 | SW 1573 | 0.829 | 0.594 | 0.558 | 0.592 | 0.484 | 0.763 | 0.873 | 0.82 | 0.861 | 0.622 | 0.809 | 0.84 | 0.805 | 0.839 | 0.683 | – | – | – | – | –
10 | ChaGo-K-1 | 0.673 | 0.615 | 0.583 | 0.51 | 0.472 | – | – | – | – | – | 0.251 | 0.25 | 0.242 | 0.261 | 0.274 | 0.926 | 0.89 | 0.856 | 0.839 | 0.796
11 | SK-MES-1 | 0.677 | 0.588 | 0.597 | 0.591 | 0.501 | 1.06 | 0.996 | 0.976 | 0.768 | 0.815 | 0.971 | 0.887 | 0.962 | 0.982 | 0.737 | – | – | – | – | –
12 | NCI-H1648 | 0.275 | 0.245 | 0.239 | 0.319 | 0.223 | – | – | – | – | – | 0.689 | 0.698 | 0.775 | 0.754 | 0.735 | 0.683 | 0.629 | 0.73 | 0.676 | 0.595
13 | NCI-H2023 | 0.483 | 0.418 | 0.394 | 0.347 | 0.35 | 0.734 | 0.691 | 0.724 | 0.798 | 0.663 | 0.287 | 0.222 | 0.215 | 0.202 | 0.205 | – | – | – | – | –
14 | EBC-1 | – | – | – | – | – | 1.07 | 0.873 | 0.961 | 1.05 | 0.86 | – | – | – | – | – | – | – | – | – | –
15 | NCI-H2009 | 0.776 | 0.668 | 0.594 | 0.73 | 0.705 | 1.21 | 1.06 | 1.01 | 0.966 | 0.709 | 1.01 | 1.03 | 0.957 | 1.04 | 1.1 | – | – | – | – | –
16 | NCI-H2228 | 0.822 | 0.633 | 0.616 | 0.499 | 0.379 | 0.63 | 0.587 | 0.62 | 0.637 | 0.82 | 0.371 | 0.288 | 0.378 | 0.355 | 0.348 | – | – | – | – | –
17 | IA-LM | – | – | – | – | – | 0.801 | 0.665 | 0.847 | 0.904 | 0.759 | – | – | – | – | – | – | – | – | – | –
18 | ABC-1 | 0.471 | 0.469 | 0.469 | 0.511 | 0.461 | 0.894 | 0.81 | 0.998 | 0.911 | 0.683 | – | – | – | – | – | 0.914 | 0.822 | 0.871 | 0.649 | 0.611
19 | NCI-H520 | 0.328 | 0.246 | 0.238 | 0.262 | 0.304 | 0.97 | 1.07 | 1.05 | 1.26 | 1.02 | 0.589 | 0.714 | 0.67 | 0.561 | 0.642 | – | – | – | – | –
20 | NCI-H1703 | – | – | – | – | – | 0.695 | 0.964 | 0.54 | – | 0.536 | – | – | – | – | – | 0.146 | 0.13 | 0.118 | 0.135 | 0.113
21 | NCI-H2170 | 0.765 | 0.771 | 0.729 | 0.735 | 0.588 | – | – | – | – | – | 0.265 | 0.292 | 0.282 | 0.265 | 0.251 | 1.09 | 0.897 | 0.791 | 1.02 | 0.676
